“Also recorded” adds a separate entry of the source.

In test [1] the test system is gut microbial community of cocaine-trained rats. Put plainly: Gut microbiota throughout cocaine self-administration (beta diversity). Particulars: day 3 vs day 12, p=0.001.
For test [2], the system named is gut microbiota in feces of naïve rats. Put plainly: Incubation of feces with cocaine and DHEA in vitro (16S rRNA sequencing, UniFrac, LEfSe).
Method: Bacterial taxa differences in fecal samples were analyzed using the Linear discriminant analysis effect size (LEfSe) method as a response for either cocaine or DHEA (0, 50, 100 and 500 μM). Stool of naïve rats was collected into 15 ml test tubes and stored under anaerobic conditions. The stool was homogenized using a vortex and mechanical stirring. After completion of the preparation, the fecal slurry was incubated at 37° C. under anaerobic conditions. Following a week of anaerobic incubation, DNA was extracted from the slurry, and 16S rRNA gene sequencing was performed (protocols described above).
Test [3] deals with gut microbiota of cocaine-trained rats. The test is described as follows: Gut microbiota composition (16S rRNA sequencing, UniFrac, ANCOM) after DHEA during extinction.
Test [4] deals with cocaine-seeking behavior of rats. Particulars: cited from earlier work.
The subject of test [5] is cocaine-seeking behavior of cocaine-trained rats. The test is described as follows: Extinction training after cocaine self-administration, daily DHEA. Particulars: DHEA 2 mg/kg IP daily, days 13-22, vs Coc-Vehicle.

Take `COC(=O)[C@H]1[C@@H](OC(=O)c2ccccc2)C[C@@H]2CC[C@H]1N2C` [Cocaine, benzoylmethylecgonine]: the “gut microbial community (beta diversity) over cocaine self-administration” value in test [1] was “significant change”. Further, the results for the “number of overrepresented bacterial features (LEfSe)” value in test [2] (cocaine 100 μM vs PBS) and in test [2] (cocaine 500 μM vs PBS) were 12 and 15, respectively. In addition, in test [2] (cocaine 100 μM vs PBS, p=0.047), the “gut microbiota beta diversity (unweighted UniFrac distances) in vitro” value is on record as “significantly changed”.
In the case of `C[C@]12CC[C@H](O)CC1=CC[C@@H]1[C@@H]2CC[C@]2(C)C(=O)CC[C@@H]12` [DHEA, dehydroepiandrosterone], the “gut microbiota beta diversity (PCoA of unweighted UniFrac distances)” value in test [3] (day 22, coc-DHEA compared with saline-vehicle) is on record as “resembled those of rats that received vehicle; also recorded: induces a microbiota more similar to the saline control”. Moreover, the “relative abundance of R. gnavus (ANCOM)” value in test [3] (day 22, coc-DHEA vs cocaine-vehicle) was “increase in the relative abundance of R. gnavus; also recorded: Levels of R. gnavus rose”. Besides, the “cocaine seeking behavior relative to maintenance levels” value in test [4] (chronic exogenous DHEA 2 mg/kg, previous work) is reported as under 20%. Also, the “cocaine-seeking behavior, self-administration model” value in test [4] (pretreatment with DHEA, background) is “attenuated cocaine-seeking behavior”. Further, in test [5], the “cocaine-seeking behavior (active lever presses) during extinction” value is listed as “significantly reduced cocaine-seeking behavior”. Besides, the “changes in bacterial features (LEfSe)” value in test [2] (DHEA 50 μM) and in test [2] (DHEA 100 μM) was “no significant changes” each time. The “gut microbiota composition (weighted UniFrac distances) in vitro” value was “significant change” in test [2] (DHEA 100 μM vs PBS, p=0.036) and “significant change” in test [2] (DHEA 500 μM vs PBS, p=0.02). The “R. gnavus among overrepresented bacterial features” value in test [2] (DHEA 500 μM) is on record as “none of them belonged to R. gnavus; also recorded: not R. gnavus”. Further, the “number of overrepresented bacterial features (LEfSe)” value in test [2] (DHEA 500 μM vs PBS) was 16.

The values above are taken from patent US20250186510A1, “BACTERIAL COMPOSITION FOR USE IN TREATMENT OF SUBSTANCE USE DISORDER” (Bar-Ilan University, priority 2022, published 2025).
